Results on four compounds are retold here after patent publication US20090238808A1, “Process for the identification of novel enzyme interacting compounds” (priority 2005, published 2009).

Holding throughout (experiment): Kinobeads elution with test compound, mouse brain lysate, MS
What all share (assay type): binding
Holding throughout (details): kinase released from kinobeads by specific elution

The subject of experiment [1] is BRAFps. In outline: (§1)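 Read-out is mass-spectrometric identification of proteins released from kinobeads by non-modified test compound. Beads had captured mouse brain lysate proteins under near-physiological conditions; after washing, elution used 1.0 mM compound for 30 min at 4° C against a 2% DMSO or DMF control.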
For experiment [2], the system named is LIMK1ps. In outline:
as §1

Experiment [3] has as its target T1, NEK9 (Mus musculus, UniProt Q8K1R7).
T1 construct: from tissue; host or cells: mouse brain
In outline: as §1

The target in experiment [4] is AMPKa1 (Mus musculus, UniProt Q5EG47). In outline:
as §1

Experiment [5] concerns the target T2, PKCa (Mus musculus, UniProt P20444).
T2 construct: from tissue; host or cells: mouse brain
Summed up: as §1

Experiment [6] concerns the target T3, PAK5 (Mus musculus, UniProt Q8C015).
T3 construct: from tissue; host or cells: mouse brain
In outline: as §1

Experiment [7] concerns the target T4, TBK1 (Mus musculus, UniProt Q9WUN2).
T4 construct: from tissue; host or cells: mouse brain
In outline:
as §1

Experiment [8] deals with ALK2 (Mus musculus, UniProt P37172). In outline: as §1
Experiment [9] has as its target T5, LYN (Mus musculus, UniProt P25911).
T5 construct: from tissue; host or cells: mouse brain
Summed up:
as §1

Experiment [10] addresses T6, QSK (Mus musculus, UniProt Q6P4S6).
T6 construct: from tissue; host or cells: mouse brain
Summed up:
as §1

T1 sequence (Q8K1R7 whole entry): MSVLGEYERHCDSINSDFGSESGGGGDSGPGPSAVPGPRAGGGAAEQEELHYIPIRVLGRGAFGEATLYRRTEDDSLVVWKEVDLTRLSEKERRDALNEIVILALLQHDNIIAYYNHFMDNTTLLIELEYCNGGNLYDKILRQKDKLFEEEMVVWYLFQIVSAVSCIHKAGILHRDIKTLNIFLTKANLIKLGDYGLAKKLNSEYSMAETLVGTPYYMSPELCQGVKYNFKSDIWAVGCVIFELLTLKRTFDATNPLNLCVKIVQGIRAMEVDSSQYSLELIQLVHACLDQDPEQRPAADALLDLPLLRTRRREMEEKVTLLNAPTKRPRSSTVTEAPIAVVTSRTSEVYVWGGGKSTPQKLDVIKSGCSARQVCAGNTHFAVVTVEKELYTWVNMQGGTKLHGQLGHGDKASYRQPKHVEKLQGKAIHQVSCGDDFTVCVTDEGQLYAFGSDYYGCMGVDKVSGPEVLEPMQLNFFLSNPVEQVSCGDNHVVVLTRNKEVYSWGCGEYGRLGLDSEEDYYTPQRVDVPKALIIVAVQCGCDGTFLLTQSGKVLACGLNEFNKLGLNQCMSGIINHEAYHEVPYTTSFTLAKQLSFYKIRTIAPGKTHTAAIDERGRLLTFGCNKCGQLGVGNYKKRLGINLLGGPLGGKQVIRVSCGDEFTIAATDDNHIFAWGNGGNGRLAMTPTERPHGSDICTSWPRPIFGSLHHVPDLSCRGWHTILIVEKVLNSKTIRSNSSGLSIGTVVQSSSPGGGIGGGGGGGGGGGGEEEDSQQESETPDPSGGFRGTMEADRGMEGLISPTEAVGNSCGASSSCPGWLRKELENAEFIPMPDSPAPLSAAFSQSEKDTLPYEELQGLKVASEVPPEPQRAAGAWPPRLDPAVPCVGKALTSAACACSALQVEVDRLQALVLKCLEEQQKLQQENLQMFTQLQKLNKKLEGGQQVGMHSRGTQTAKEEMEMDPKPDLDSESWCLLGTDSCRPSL
Chain of ALK2 (P37172 21-509): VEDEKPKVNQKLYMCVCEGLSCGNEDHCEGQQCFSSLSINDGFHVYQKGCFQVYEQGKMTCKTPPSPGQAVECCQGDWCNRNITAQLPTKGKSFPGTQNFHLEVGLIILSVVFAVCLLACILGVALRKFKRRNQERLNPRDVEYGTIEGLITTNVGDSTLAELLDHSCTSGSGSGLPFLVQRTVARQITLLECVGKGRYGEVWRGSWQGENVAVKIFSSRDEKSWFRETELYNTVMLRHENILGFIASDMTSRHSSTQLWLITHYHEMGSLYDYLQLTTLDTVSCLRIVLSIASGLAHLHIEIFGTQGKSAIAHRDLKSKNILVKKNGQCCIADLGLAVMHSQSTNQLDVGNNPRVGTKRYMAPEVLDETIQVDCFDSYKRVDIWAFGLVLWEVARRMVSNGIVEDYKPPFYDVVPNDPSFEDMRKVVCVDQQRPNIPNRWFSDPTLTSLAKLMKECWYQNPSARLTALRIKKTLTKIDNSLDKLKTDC
T3 sequence (Q8C015 whole entry): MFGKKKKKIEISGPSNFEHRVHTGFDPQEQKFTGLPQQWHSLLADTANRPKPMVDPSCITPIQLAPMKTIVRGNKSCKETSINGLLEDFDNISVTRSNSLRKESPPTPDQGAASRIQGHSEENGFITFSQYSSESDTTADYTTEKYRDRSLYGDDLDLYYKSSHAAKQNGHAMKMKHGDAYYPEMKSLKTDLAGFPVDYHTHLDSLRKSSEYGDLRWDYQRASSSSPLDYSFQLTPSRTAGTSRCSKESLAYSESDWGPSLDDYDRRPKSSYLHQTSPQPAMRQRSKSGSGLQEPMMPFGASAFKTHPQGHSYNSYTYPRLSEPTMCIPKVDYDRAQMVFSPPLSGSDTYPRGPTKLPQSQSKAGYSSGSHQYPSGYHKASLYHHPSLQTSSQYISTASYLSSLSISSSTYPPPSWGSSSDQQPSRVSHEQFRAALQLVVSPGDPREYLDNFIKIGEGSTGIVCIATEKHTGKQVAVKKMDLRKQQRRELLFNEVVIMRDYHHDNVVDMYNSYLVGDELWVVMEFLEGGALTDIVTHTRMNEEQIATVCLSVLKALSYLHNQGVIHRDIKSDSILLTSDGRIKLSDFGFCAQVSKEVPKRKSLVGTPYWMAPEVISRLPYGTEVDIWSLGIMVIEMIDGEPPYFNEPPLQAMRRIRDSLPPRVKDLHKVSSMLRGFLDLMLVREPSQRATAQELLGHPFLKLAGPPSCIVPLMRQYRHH
T6 sequence (Q6P4S6 whole entry): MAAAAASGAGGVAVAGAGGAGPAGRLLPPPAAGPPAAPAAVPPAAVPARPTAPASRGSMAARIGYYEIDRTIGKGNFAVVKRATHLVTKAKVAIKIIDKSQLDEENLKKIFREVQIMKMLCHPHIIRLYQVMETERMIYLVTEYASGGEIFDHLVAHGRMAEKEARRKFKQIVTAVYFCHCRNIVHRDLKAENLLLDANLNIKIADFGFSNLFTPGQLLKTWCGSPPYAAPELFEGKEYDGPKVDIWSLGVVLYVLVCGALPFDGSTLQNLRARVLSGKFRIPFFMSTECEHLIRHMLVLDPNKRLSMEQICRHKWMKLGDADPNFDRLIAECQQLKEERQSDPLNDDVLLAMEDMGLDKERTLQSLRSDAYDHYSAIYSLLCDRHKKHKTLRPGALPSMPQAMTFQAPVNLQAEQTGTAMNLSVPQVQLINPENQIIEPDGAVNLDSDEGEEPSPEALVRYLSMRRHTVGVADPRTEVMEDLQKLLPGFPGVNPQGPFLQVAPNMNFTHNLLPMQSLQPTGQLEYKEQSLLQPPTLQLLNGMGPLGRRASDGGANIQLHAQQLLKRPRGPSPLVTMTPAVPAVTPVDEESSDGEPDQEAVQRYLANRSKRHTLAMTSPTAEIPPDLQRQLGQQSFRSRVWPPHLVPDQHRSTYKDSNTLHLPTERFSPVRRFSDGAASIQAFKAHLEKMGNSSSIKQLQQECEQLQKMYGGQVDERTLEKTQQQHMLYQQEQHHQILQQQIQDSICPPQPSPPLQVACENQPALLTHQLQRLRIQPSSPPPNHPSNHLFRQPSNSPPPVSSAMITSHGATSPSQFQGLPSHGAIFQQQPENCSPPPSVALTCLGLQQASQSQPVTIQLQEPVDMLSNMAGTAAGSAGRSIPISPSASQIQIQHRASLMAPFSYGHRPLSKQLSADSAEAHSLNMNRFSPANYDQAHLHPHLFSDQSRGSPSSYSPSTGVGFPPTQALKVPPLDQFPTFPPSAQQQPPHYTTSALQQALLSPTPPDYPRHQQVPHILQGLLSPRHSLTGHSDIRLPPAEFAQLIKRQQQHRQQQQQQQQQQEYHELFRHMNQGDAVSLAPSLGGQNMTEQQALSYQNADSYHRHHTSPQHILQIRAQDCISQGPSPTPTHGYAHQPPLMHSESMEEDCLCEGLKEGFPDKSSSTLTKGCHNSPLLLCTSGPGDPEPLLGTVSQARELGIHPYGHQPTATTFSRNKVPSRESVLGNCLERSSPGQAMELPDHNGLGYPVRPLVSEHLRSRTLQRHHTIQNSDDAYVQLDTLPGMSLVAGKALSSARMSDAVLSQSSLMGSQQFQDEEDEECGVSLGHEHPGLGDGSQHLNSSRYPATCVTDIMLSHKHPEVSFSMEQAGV
T4 sequence (Q9WUN2 whole entry): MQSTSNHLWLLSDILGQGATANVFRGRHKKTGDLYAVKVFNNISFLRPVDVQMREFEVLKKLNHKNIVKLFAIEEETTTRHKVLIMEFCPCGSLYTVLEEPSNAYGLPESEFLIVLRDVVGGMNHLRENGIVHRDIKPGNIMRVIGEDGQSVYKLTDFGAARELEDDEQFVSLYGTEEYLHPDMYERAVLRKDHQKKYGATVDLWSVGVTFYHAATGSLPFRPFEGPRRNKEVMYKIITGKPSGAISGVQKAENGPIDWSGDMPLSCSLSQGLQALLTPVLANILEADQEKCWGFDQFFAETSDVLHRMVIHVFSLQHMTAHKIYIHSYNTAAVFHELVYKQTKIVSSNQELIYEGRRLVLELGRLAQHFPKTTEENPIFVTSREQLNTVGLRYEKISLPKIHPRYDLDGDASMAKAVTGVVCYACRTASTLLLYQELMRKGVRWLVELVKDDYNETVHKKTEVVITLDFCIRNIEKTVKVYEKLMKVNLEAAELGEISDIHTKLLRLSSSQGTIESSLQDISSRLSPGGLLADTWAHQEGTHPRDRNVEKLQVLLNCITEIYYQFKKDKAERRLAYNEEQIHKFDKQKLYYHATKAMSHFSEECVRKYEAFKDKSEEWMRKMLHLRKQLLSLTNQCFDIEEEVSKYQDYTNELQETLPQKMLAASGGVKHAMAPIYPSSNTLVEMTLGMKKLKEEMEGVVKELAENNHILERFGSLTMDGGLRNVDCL
T5 sequence (P25911 whole entry): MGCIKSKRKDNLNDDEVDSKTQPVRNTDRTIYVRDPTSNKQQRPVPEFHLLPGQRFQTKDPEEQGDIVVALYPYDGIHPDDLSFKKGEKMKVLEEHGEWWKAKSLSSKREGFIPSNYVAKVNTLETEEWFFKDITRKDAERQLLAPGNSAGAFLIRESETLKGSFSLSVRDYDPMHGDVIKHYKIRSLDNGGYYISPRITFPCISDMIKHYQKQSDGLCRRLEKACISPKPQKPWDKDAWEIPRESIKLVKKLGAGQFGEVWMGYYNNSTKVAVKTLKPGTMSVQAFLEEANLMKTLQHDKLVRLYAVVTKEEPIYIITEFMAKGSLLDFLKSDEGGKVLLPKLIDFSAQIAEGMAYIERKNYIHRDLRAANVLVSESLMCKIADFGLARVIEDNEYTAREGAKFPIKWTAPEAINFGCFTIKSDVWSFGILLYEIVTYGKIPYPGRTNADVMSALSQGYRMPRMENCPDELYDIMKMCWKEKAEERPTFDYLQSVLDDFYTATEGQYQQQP

`Cn1c(=O)c(-c2c(Cl)cccc2Cl)cc2cnc(Nc3ccc(CN)cc3)cc21` [CZC7324]: in experiment [1], the “mass spectrometry score, BRAFps” value came to 70 and the “number of identified peptides, BRAFps” value worked out at 4.
With `NCc1ccc(Nc2ncc(F)c(Nc3ccccc3)n2)cc1` [CZC00008004], in [2], the “mass spectrometry score, LIMK1ps” value was 186 and the “number of identified peptides, LIMK1ps” value came to 4. In [3], the “mass spectrometry score, NEK9” value worked out at 61 and the “number of identified peptides, NEK9” value is listed as 2. In experiment [4], the “mass spectrometry score, AMPKa1” value was determined as 64 and the “number of identified peptides, AMPKa1” value came out at 2.
Take `CNC1CC2OC(C)(C1OC)n1c3ccccc3c3c4c(c5c6ccccc6n2c5c31)C(=O)NC4` (centres unmarked) [CZC9280]: in [5], the “mass spectrometry score, PKCa” value amounted to 64 and the “number of identified peptides, PKCa” value is on record as 1. Besides, in experiment [6], the “mass spectrometry score, PAK5” value is 64 and the “number of identified peptides, PAK5” value came to 1. In addition, in [7], the “mass spectrometry score, TBK1” value worked out at 48 and the “number of identified peptides, TBK1” value amounted to 1.
On to `CCCCCCCCCCCCOS(=O)(=O)[O-].[Na+]` [SDS], for which, in experiment [8], the “mass spectrometry score, ALK2” value is recorded as 65 and the “number of identified peptides, ALK2” value is listed as 2. For the same compound, in experiment [9], the “mass spectrometry score, LYN” value is 134 and the “number of identified peptides, LYN” value came out at 6. Besides, in [10], the “mass spectrometry score, QSK” value is 153 and the “number of identified peptides, QSK” value was determined as 7.
